In the supplement of paper PMC10307832:

Tests used:
Assay in all cases: relative viability (nuclei count vs DMSO), 5 days (fraction); higher = more cells survive
Selisistat + Lapatinib = compound: C1CC(C2=C(C1)C3=C(N2)C=CC(=C3)Cl)C(=O)N [Selisistat] + CS(=O)(=O)CCNCc1ccc(-c2ccc3ncnc(Nc4ccc(OCc5cccc(F)c5)c(Cl)c4)c3c2)o1 [Lapatinib] (partner 2 µM)
How it was run: (§1)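 A single step with final 0.05% Triton X-100, 1% formaldehyde and 1 ug/ml Hoechst fixed the cells and stained nuclei 5 days after treatment. Lung cancer cell lines in 1536-well plates had been treated by pin tool the day after seeding with one drug alone or a fixed anchor-drug dose plus five library-drug doses (not always all listed) in √10 steps, and nuclei were counted on 4× images. Relative viability is the ratio of nuclei in treated wells to nuclei in vehicle wells, taken as the median of duplicate plates.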

Selisistat + Olaparib = compound: C1CC(C2=C(C1)C3=C(N2)C=CC(=C3)Cl)C(=O)N [Selisistat] + O=C(c1cc(Cc2n[nH]c(=O)c3ccccc23)ccc1F)N1CCN(C(=O)C2CC2)CC1 [Olaparib] (partner 8 µM)
How it was run: as §1

Serdemetan + Tozasertib = compound: c1ccc2c(CCNc3ccc(Nc4ccncc4)cc3)c[nH]c2c1 [Serdemetan] + Cc1cc(Nc2cc(N3CCN(C)CC3)nc(Sc3ccc(NC(=O)C4CC4)cc3)n2)n[nH]1 [Tozasertib] (partner 0.1 µM)
How it was run: as §1

Serdemetan + Decitabine = compound: c1ccc2c(CCNc3ccc(Nc4ccncc4)cc3)c[nH]c2c1 [Serdemetan] + Nc1ncn([C@H]2C[C@H](O)[C@@H](CO)O2)c(=O)n1 [Decitabine] (partner 2 µM)
How it was run: as §1

Cell Line	relative viability (Selisistat + Lapatinib; first compound 0.4 µM)	relative viability (Selisistat + Lapatinib; first compound 1.265 µM)	relative viability (Selisistat + Lapatinib; first compound 4 µM)	relative viability (Selisistat + Lapatinib; first compound 12.65 µM)	relative viability (Selisistat + Lapatinib; first compound 40 µM)	relative viability (Selisistat + Olaparib; first compound 0.4 µM)	relative viability (Selisistat + Olaparib; first compound 1.265 µM)	relative viability (Selisistat + Olaparib; first compound 4 µM)	relative viability (Selisistat + Olaparib; first compound 12.65 µM)	relative viability (Selisistat + Olaparib; first compound 40 µM)	relative viability (Serdemetan + Tozasertib; first compound 0.04 µM)	relative viability (Serdemetan + Tozasertib; first compound 0.1265 µM)	relative viability (Serdemetan + Tozasertib; first compound 0.4 µM)	relative viability (Serdemetan + Tozasertib; first compound 1.265 µM)	relative viability (Serdemetan + Tozasertib; first compound 4 µM)	relative viability (Serdemetan + Decitabine; first compound 0.04 µM)	relative viability (Serdemetan + Decitabine; first compound 0.1265 µM)	relative viability (Serdemetan + Decitabine; first compound 0.4 µM)	relative viability (Serdemetan + Decitabine; first compound 1.265 µM)	relative viability (Serdemetan + Decitabine; first compound 4 µM)
201T	1.11	1.02	1.02	1.03	1.08	0.85	0.841	0.827	0.823	0.843	0.983	0.939	0.925	0.787	0.497	0.863	0.801	0.783	0.489	0.593
A549	1.05	0.937	1.12	0.974	0.95	0.439	0.299	0.267	0.324	0.314						0.263	0.245	0.261	0.291	0.198
A-427	1.03	1.02	0.98	0.879	1.12	0.853	0.779		0.829	0.692	0.2	0.198	0.192	0.165	0.16	0.555	0.56	0.606	0.513	0.45
ABC-1	1.03	1.12	1.19	0.924	1.24	0.715	0.686		0.876	0.69	0.132	0.171	0.182	0.177	0.162	0.896	1.01	1.25	0.921	0.844
BEN	0.677	0.683	0.471	0.603	0.548	1.08	1.03	1.06	1.06	1.04	0.451	0.477	0.531	0.478	0.469	0.649	0.612	0.726	0.631	0.647
CAL-12T	0.628	0.704		0.627	0.646	0.765	0.675	0.689	0.782	0.769	0.272	0.318	0.246	0.309	0.327					
COR-L23	0.969	1.03	0.959	0.935	0.799	0.409	0.331	0.406	0.367	0.335	0.236	0.201	0.224	0.174	0.165	0.4	0.443	0.435	0.39	0.353
COR-L 105	0.298	0.338	0.371	0.378	0.31	0.703	0.67	0.815	0.659	0.576	0.313	0.336	0.357	0.405	0.366	0.65	0.646	0.574	0.52	0.626
Calu-6	1.06	1.09	1.02	0.949	0.895	0.561	0.572	0.634	0.552	0.617										
ChaGo-K-1						0.439	0.409	0.438	0.351	0.388	0.231	0.232	0.2	0.178	0.167	0.488	0.42	0.421	0.266	0.303
EBC-1	0.256	0.208	0.224	0.243	0.244	0.763	0.732	0.711	0.728	0.66										
EKVX	0.213	0.243	0.185	0.252	0.215	0.872	0.886	0.752	0.869	0.818	0.424	0.426	0.327		0.29	0.322	0.33			0.291
EMC-BAC-2	0.869	0.875	0.848	0.894	0.848	0.577	0.504	0.676	0.371	0.405	0.246	0.298	0.248	0.22	0.217	0.882	0.912	0.972	0.879	0.823
EPLC-272H	0.761	0.996		0.955	0.915	0.888	0.787	0.626	0.749	0.657	0.269	0.309	0.306	0.169	0.249	0.384	0.362	0.341	0.338	0.256
H3255	0.225	0.263	0.123	0.245	0.271	0.505	0.538	0.571	0.549	0.539	0.678	0.693	0.629	0.626	0.556	0.546	0.588		0.569	0.42
HARA	0.726	0.691	0.71	0.778	0.904	0.695	0.651		0.785	0.85	0.0876	0.0858	0.0868	0.0805	0.0776	0.542	0.47	0.409	0.344	0.379
HCC-15	0.878	0.864		0.867	1.01	0.822	0.712	0.855	0.675	0.743	0.377	0.367	0.377	0.294	0.283	0.614	0.599	0.56	0.511	0.341
HCC-44	0.983	1.16	1.01	1.02	1.13	0.992	1.01	1.01	1.02	1.18	1	1.04	0.765	0.915	0.869	0.895	0.954	0.925	0.865	0.961
